The test system of series [1] is Rattus norvegicus. The experiment in a line: Compound is evaluated for antiinflammatory activity using carrageenan-induced paw edema method in rat at a dose 5 mg/kg ip after 1 hr. The series is classed as functional. Conditions: route intraperitoneal. A general note: Carrageenan injected into the paw causes an acute inflammation.
Series [2] has as its system Rattus norvegicus. In words: Compound is evaluated for antiinflammatory activity using carrageenan-induced paw edema method in rat at a dose 5 mg/kg ip after 2 hr. The conditions noted are these: route intraperitoneal. The series is classed as functional.
Series [3] is described as follows: Lethal dose is determined in mice (po). The series is classed as toxicity, organism-based. Conditions: mouse, in vivo.
Series [4] in a line: Lethal dose is determined in mice (iv). The series is classed as toxicity, organism-based. The conditions noted are these: mouse, in vivo.
In series [5] the test system is Rattus norvegicus. The experiment in a line: Compound is evaluated for antiinflammatory activity using carrageenan-induced paw edema method in rat at a dose 5 mg/kg ip after 3h. The series is classed as functional. The conditions noted are these: route intraperitoneal.
The subject of series [6] is Rattus norvegicus. In words: Compound is evaluated for antiinflammatory activity using carrageenan-induced paw edema method in rat at a dose 500 mg/kg ip after 1 hr. The series is classed as functional. The conditions noted are these: route intraperitoneal.
Series [7] relates to Rattus norvegicus. The experiment in a line: Compound is evaluated for antiinflammatory activity using carrageenan-induced paw edema method in rat at a dose 500 mg/kg ip after 2 hr. The conditions noted are these: route intraperitoneal. Format: functional.
For series [8], the system named is Rattus norvegicus. In words: Compound is evaluated for antiinflammatory activity using carrageenan-induced paw edema method in rat at a dose 500 mg/kg ip after 3h. The conditions noted are these: route intraperitoneal. Format: functional.
Series [9] relates to Rattus norvegicus. In words: Compound is evaluated for antiinflammatory activity using carrageenan-induced paw edema method in rat at a dose 200 mg/kg po after 1 hr. Format: functional.
The subject of series [10] is Rattus norvegicus. The experiment in a line: Compound is evaluated for antiinflammatory activity using carrageenan-induced paw edema method in rat at a dose 200 mg/kg po after 3h. The series is classed as functional.
The test system of series [11] is Rattus norvegicus. In words: Compound is evaluated for antiinflammatory activity using carrageenan-induced paw edema method in rat at a dose 200 mg/kg po after 2 hr. The series is classed as functional.
Series [12] deals with Rattus norvegicus. The experiment in a line: Compound is evaluated for antiinflammatory activity using carrageenan-induced paw edema method in rat at a dose 25 mg/kg ip after 1 hr. The series is classed as functional. Conditions: route intraperitoneal.
Series [13] has as its system Rattus norvegicus. The experiment in a line: Compound is evaluated for antiinflammatory activity using carrageenan-induced paw edema method in rat at a dose 25 mg/kg ip after 2 hr. The series is classed as functional. Conditions: route intraperitoneal.
Series [14] deals with Rattus norvegicus. In words: Compound is evaluated for antiinflammatory activity using carrageenan-induced paw edema method in rat at a dose 25 mg/kg ip after 3h. The conditions noted are these: route intraperitoneal. The series is classed as functional.
Series [15] concerns Rattus norvegicus. In words: Compound is evaluated for antiinflammatory activity using carrageenan-induced paw edema method in rat at a dose 30 mg/kg ip after 3h. Format: functional. The conditions noted are these: route intraperitoneal.
The subject of series [16] is Rattus norvegicus. The experiment in a line: Compound is evaluated for antiinflammatory activity using carrageenan-induced paw edema method in rat at a dose 30 mg/kg ip after 1 hr. The series is classed as functional. Conditions: route intraperitoneal.
Series [17] relates to Rattus norvegicus. The experiment in a line: Compound is evaluated for antiinflammatory activity using carrageenan-induced paw edema method in rat at a dose 30 mg/kg ip after 2 hr. Format: functional. Conditions: route intraperitoneal.
Series [18] concerns Rattus norvegicus. The experiment in a line: Compound is evaluated for antiinflammatory activity using carrageenan-induced paw edema method in rat at a dose 10 mg/kg ip after 2 hr. The conditions noted are these: route intraperitoneal. The series is classed as functional.
Series [19] concerns Rattus norvegicus. In words: Compound is evaluated for antiinflammatory activity using carrageenan-induced paw edema method in rat at a dose 10 mg/kg ip after 3h. The series is classed as functional. Conditions: route intraperitoneal.
For series [20], the system named is Rattus norvegicus. The experiment in a line: Compound is evaluated for antiinflammatory activity using carrageenan-induced paw edema method in rat at a dose 10 mg/kg ip after 1 hr. The series is classed as functional. Conditions: route intraperitoneal.

Reduction and LD50 data for 18 compounds are collected here from ChEMBL document CHEMBL1121668, “(Phenylthio)phenylamine derivatives as potential antiinflammatory compounds” (J Med Chem, 1981).

The term LD50 denotes the dose at which mortality reaches 50%.

`CCN(CC)CC(=O)N(C)c1ccc(Sc2ccccc2)cc1`: the results for the Reduction with Rattus norvegicus [1], in the series on Rattus norvegicus [2] and in the series on Rattus norvegicus [5] were 53%, 50% and 52%, respectively. The results for the LD50 in series [3] and in [4] were 140 mg/kg and 30 mg/kg, respectively.

On to `CN(C(=O)C1CC1)c1ccc(Sc2ccccc2)cc1`, for which the values for the Reduction with Rattus norvegicus [6], with Rattus norvegicus [7] and with Rattus norvegicus [8] were 57%, 48% and 37%, respectively. In [4], this compound gave an LD50 of over 1000 mg/kg.

For `CN(C(=O)c1ccc(Cl)cc1)c1ccc(Sc2ccccc2)cc1`, the figures for the Reduction in the series on Rattus norvegicus [6], in the series on Rattus norvegicus [7] and with Rattus norvegicus [8] were 65%, 60% and 48%, respectively. The same compound gave an LD50 in [4] of over 1000 mg/kg.

`CN(C(=O)C1CN(c2ccccc2)C(=O)C1=O)c1ccc(Sc2ccccc2)cc1` (stereo unspecified) showed a median lethal dose (LD50) in [3] of over 1000 mg/kg. Further, the Reduction with Rattus norvegicus [9] is 36%; with Rattus norvegicus [10], 0%; in the series on Rattus norvegicus [11] it was 5%.

In [3], `CC(C)N1CC(C(=O)N(C)c2ccc(Sc3ccccc3)cc2)C(=O)C1=O` (stereo unspecified) registered an LD50 of over 1000 mg/kg. For the same compound, the Reduction came out at 30% with Rattus norvegicus [9], 18% with Rattus norvegicus [10] and 26% with Rattus norvegicus [11].

For `CCN(CC)CC(=O)Nc1ccc(Sc2ccccc2)cc1`, the LD50 in series [3] was found to be 275 mg/kg; in series [4] it was 45 mg/kg. The Reduction in the series with Rattus norvegicus [12] came to 30%; with Rattus norvegicus [13], 47%; with Rattus norvegicus [14], 22%.

Take `CN(C(=O)CN1CCCCC1)c1ccc(Sc2ccccc2)cc1`: the Reduction with Rattus norvegicus [1] is 40%; in the series with Rattus norvegicus [2] it was 29%; in the series with Rattus norvegicus [5] it was 34%. Besides, the LD50 in series [4] is 25 mg/kg.

Turning to `CC(=O)Oc1ccccc1C(=O)N(C)c1ccc(Sc2ccccc2)cc1`, the Reduction was determined as 59% in the series on Rattus norvegicus [6], 55% in the series with Rattus norvegicus [7] and 32% in the series on Rattus norvegicus [8]. The LD50 in series [4] came to 1000 mg/kg.

Take `CN1CC(C(=O)N(C)c2ccc(Sc3ccccc3)cc2)C(=O)C1=O` (stereo unspecified): the Reduction was 36% in the series with Rattus norvegicus [9], 0% in the series with Rattus norvegicus [10] and 0% with Rattus norvegicus [11]. This compound came in with an LD50 in series [4] of over 1000 mg/kg.

For `CCN(CC)CC(=O)Nc1ccc(Sc2ccc(Cl)cc2)cc1`, the LD50 in series [3] is 275 mg/kg; in series [4], 45 mg/kg. For the same compound, the Reduction in the series on Rattus norvegicus [12] worked out at 56%; with Rattus norvegicus [13] it was 74%; with Rattus norvegicus [14] it was 72%.

In the case of `CCN(CC)CC(=O)Nc1ccccc1Sc1ccc(Cl)cc1`, the LD50 in series [3] was 35 mg/kg; in series [4], 55 mg/kg. Further, the results for the Reduction in the series on Rattus norvegicus [15], in the series on Rattus norvegicus [16] and in the series on Rattus norvegicus [17] were 68%, 65% and 63%, respectively.

On to `CN(C)CC(=O)N(C)c1ccc(Sc2ccccc2)cc1`, for which the results for the Reduction in the series on Rattus norvegicus [1], with Rattus norvegicus [2] and with Rattus norvegicus [5] were 18%, 14% and 22%, respectively. The same compound came in with an LD50 in series [4] of 50 mg/kg.

Turning to `CCN(CC)CC(=O)N(C)c1ccc(Sc2ccc(Cl)cc2)cc1`, the Reduction was 15% with Rattus norvegicus [18], 0% in the series with Rattus norvegicus [19] and 13% in the series on Rattus norvegicus [20]. The LD50 was found to be 175 mg/kg in series [3] and 45 mg/kg in [4].

As for `CN(C(=O)CN1CCOCC1)c1ccc(Sc2ccccc2)cc1`, the Reduction with Rattus norvegicus [18] was 45%; in the series with Rattus norvegicus [19] it was 43%; with Rattus norvegicus [20], 55%. This compound also had an LD50 in series [4] of 75 mg/kg.

Regarding `CCOC(=O)C1=C(Nc2ccc(Sc3ccccc3)cc2)C(=O)N(C(C)C)C1`, in series [3], the median lethal dose (LD50) was over 1000 mg/kg. For the same compound, the figures for the Reduction in the series with Rattus norvegicus [9], in the series with Rattus norvegicus [10] and in the series with Rattus norvegicus [11] were 22%, 30% and 30%, respectively.

`CN(C(=O)CN1CCCC1)c1ccc(Sc2ccccc2)cc1`: the Reduction came to 18% in the series with Rattus norvegicus [1], 18% in the series with Rattus norvegicus [2] and 23% with Rattus norvegicus [5]. Further, the LD50 in series [4] turned out to be 35 mg/kg.

With `CN1CCN(CC(=O)N(C)c2ccc(Sc3ccccc3)cc2)CC1`, the Reduction in the series with Rattus norvegicus [18] amounted to 30%; in the series on Rattus norvegicus [19], 38%; with Rattus norvegicus [20], 45%. Further, the LD50 in [4] was found to be 75 mg/kg.

With `COc1ccc2c(c1)c(CC(=O)O)c(C)n2C(=O)c1ccc(Cl)cc1` [INDOMETHACIN], the Reduction in the series with Rattus norvegicus [18] amounted to 65%; with Rattus norvegicus [19], 67%; with Rattus norvegicus [20], 61%.
